We go through one compound from patent publication US6169084A, “2-methyl-thieno-benzodiazepine formulation” (Eli Lilly and Company, priority 1998, dated 2001).

Structures are written as SMILES.

For data set [1] the following is noted: dogs, male vs female; cited from earlier work.
The nature of data set [2]: Discoloration of olanzapine in contact with excipients. It is filed as physicochemical. The following applies: contacted with certain excipients including powder blends; exacerbated by ambient air, elevated temperatures, moist environments.

Turning to `Cc1cc2c(s1)Nc1ccccc1N=C2N1CCN(C)CC1` [olanzapine, 2-methyl-4-(4-methyl-1-piperazinyl)-10H-thieno[2,3-b][1,5]benzodiazepine], the “difference in the pharmacokinetic of olanzapine between the sexes” value in data set [1] is recorded as “no difference”. In data set [2], the “discoloration (stability)” value is “undergoes undesirable discoloration”.
